From patent US20050197350A1, “Novel quinoline, tetrahydroquinazoline, and pyrimidine derivatives and methods of treatment related to the use thereof” (TAISHO PHARMACEUTICAL CO., LTD., priority 2003, published 2005)

system: MCH receptors; assay: MCH receptor activity class (method not given); conditions: MCH receptor activity class 1-3 (percent of control at 10^-7 M or IC50)

Structure (SMILES)	class
CCc1cccc(C(C)C)c1NC(=O)NC[C@H]1CC[C@@H](Nc2cc(N(C)C)c3ccccc3n2)CC1 [compound 2376, N-[(cis-4-{[4-(dimethylamino)quinolin-2-yl]amino}cyclohexyl)methyl]-N′-(2-ethyl-6-isopropylphenyl)urea]	1 (Class 1: The value of percent of control at 10^−7 M was less than 40% or the value of IC50 was less than 50 nM.)
Cc1cccc(Cl)c1NC(=O)NC[C@H]1CC[C@@H](Nc2cc(N(C)C)c3ccccc3n2)CC1 [compound 2374]	3 (Class 3 The value of percent of control at 10^−7 M was more than 60% or the value of IC50 was more than 200 nM.)
CN(C)c1cc(N[C@H]2CC[C@@H](CNC(=O)Nc3ccccc3I)CC2)nc2ccccc12 [compound 2378]	3 (Class 3 The value of percent of control at 10^−7 M was more than 60% or the value of IC50 was more than 200 nM.)
Cc1onc(-c2ccccc2)c1NC(=S)N[C@H]1CC[C@@H](Nc2cc(N(C)C)c3ccccc3n2)CC1 [compound 2309]	3 (Class 3 The value of percent of control at 10^−7 M was more than 60% or the value of IC50 was more than 200 nM.)

same assay, conditions: MCH receptor; class by percent of control at 10^-7 M or IC50

Structure (SMILES)	class
CN(C)c1nc(N[C@H]2CC[C@@H](NC(=S)NCc3ccc(Cl)cc3)CC2)nc2c1CCCC2 [compound 2079]	3 (Class 3 The value of percent of control at 10^−7 M was more than 60% or the value of IC50 was more than 200 nM.)
CN(C)c1nc(N[C@H]2CC[C@@H](NC(=S)Nc3cc(Cl)c(Cl)c(Cl)c3Cl)CC2)nc2c1CCCC2 [compound 1999]	3 (Class 3 The value of percent of control at 10^−7 M was more than 60% or the value of IC50 was more than 200 nM.)

same assay, conditions: activity class 1-3: percent of control at 10^-7 M or IC50

Structure (SMILES)	class
COc1ccccc1OC(=O)NC[C@H]1CC[C@@H](Nc2nccc(N(C)C)n2)CC1 [compound 1644]	3 (Class 3 The value of percent of control at 10^−7 M was more than 60% or the value of IC50 was more than 200 nM.)
CN(C)c1nc(N[C@H]2CC[C@@H](CNC(=O)OCC(C)(C)C)CC2)nc2c1CCCC2 [compound 1600]	3 (Class 3 The value of percent of control at 10^−7 M was more than 60% or the value of IC50 was more than 200 nM.)
CN(C)c1nc(N[C@H]2CC[C@@H](NC(=O)OCc3ccc([N+](=O)[O-])cc3)CC2)nc2c1CCCC2 [compound 1588]	3 (Class 3 The value of percent of control at 10^−7 M was more than 60% or the value of IC50 was more than 200 nM.)
COc1cc(COC(=O)NC[C@H]2CC[C@@H](Nc3nccc(N(C)C)n3)CC2)c([N+](=O)[O-])cc1OC [compound 1641]	3 (Class 3 The value of percent of control at 10^−7 M was more than 60% or the value of IC50 was more than 200 nM.)
CN(C)c1cc(NC2CCC(NC(=O)OCc3ccc([N+](=O)[O-])cc3)CC2)nc2ccccc12 (centres unmarked) [compound 1548]	3 (Class 3 The value of percent of control at 10^−7 M was more than 60% or the value of IC50 was more than 200 nM.)

same assay, conditions: activity class per percent of control at 10^-7 M or IC50

Structure (SMILES)	class
COc1cccc(OC)c1CNC[C@H]1CC[C@@H](Nc2cc(N(C)C)c3ccccc3n2)CC1 [compound 1122]	2 (Class 2: The value of percent of control at 10^−7 M was from 40% to 60% or the value of IC′50 was from 50 nM to 200 nM.)
COc1ccc2[nH]cc(CNC[C@H]3CC[C@@H](Nc4cc(N(C)C)c5ccccc5n4)CC3)c2c1 [compound 1127]	3 (Class 3 The value of percent of control at 10^−7 M was more than 60% or the value of IC50 was more than 200 nM.)
COc1cc(CNC[C@H]2CC[C@@H](Nc3cc(N(C)C)c4ccccc4n3)CC2)cc(OC)c1O [compound 1133]	3 (Class 3 The value of percent of control at 10^−7 M was more than 60% or the value of IC50 was more than 200 nM.)

same assay, conditions: class 1-3 by percent of control at 10^-7 M or IC50

Structure (SMILES)	class
CN(C)c1nc(N[C@H]2CC[C@@H](NC(=O)COc3ccccc3[N+](=O)[O-])CC2)nc2c1CCCC2 [compound 549]	3 (Class 3 The value of percent of control at 10^−7 M was more than 60% or the value of IC50 was more than 200 nM.)
CN(C)c1ccnc(N[C@H]2CC[C@@H](CNC(=O)c3c(Cl)cc(Cl)cc3Cl)CC2)n1 [compound 451]	2 (Class 2: The value of percent of control at 10^−7 M was from 40% to 60% or the value of IC′50 was from 50 nM to 200 nM.)
CSc1ncccc1C(=O)N[C@H]1CC[C@@H](Nc2nc3c(c(N(C)C)n2)CCCC3)CC1 [compound 478]	3 (Class 3 The value of percent of control at 10^−7 M was more than 60% or the value of IC50 was more than 200 nM.)
CN(C)c1nc(N[C@H]2CC[C@@H](NC(=O)c3csc(-c4cccs4)n3)CC2)nc2c1CCCC2 [compound 581]	2 (Class 2: The value of percent of control at 10^−7 M was from 40% to 60% or the value of IC′50 was from 50 nM to 200 nM.)

same assay, conditions: class by percent of control at 10^-7 M or IC50

Structure (SMILES)	class
COc1cc(Cl)ccc1CNC[C@H]1CC[C@@H](Nc2cc(N(C)C)c3ccccc3n2)CC1 [compound 1475]	3 (Class 3 The value of percent of control at 10^−7 M was more than 60% or the value of IC50 was more than 200 nM.)
CN(C)c1ccnc(N[C@H]2CC[C@@H](NCc3ccc(F)c(Br)c3)CC2)n1 [compound 1225]	3 (Class 3 The value of percent of control at 10^−7 M was more than 60% or the value of IC50 was more than 200 nM.)
CN(C)c1cc(N[C@H]2CC[C@@H](NC(=O)Nc3c(Cl)cc(Cl)cc3Cl)CC2)nc2ccccc12 [compound 2099, N-(cis-4-{[4-(dimethylamino)quinolin-2-yl]amino}cyclohexyl)-N′-(2,4,6-trichlorophenyl)urea]	2 (Class 2: The value of percent of control at 10^−7 M was from 40% to 60% or the value of IC′50 was from 50 nM to 200 nM.)
CN(C)c1ccnc(N[C@H]2CC[C@@H](NC(=O)c3c4ccccc4cc4ccccc34)CC2)n1 [compound 892]	3 (Class 3 The value of percent of control at 10^−7 M was more than 60% or the value of IC50 was more than 200 nM.)
CN(C)c1ccnc(N[C@H]2CC[C@@H](NC(=S)Nc3ccc(C#N)cc3)CC2)n1 [compound 2258]	2 (Class 2: The value of percent of control at 10^−7 M was from 40% to 60% or the value of IC′50 was from 50 nM to 200 nM.)
CN(C)c1cc(N[C@H]2CC[C@@H](CNCc3cc(F)cc(C(F)(F)F)c3)CC2)nc2ccccc12 [compound 1198]	3 (Class 3 The value of percent of control at 10^−7 M was more than 60% or the value of IC50 was more than 200 nM.)
CCc1cccc(C(C)C)c1NC(=S)N[C@H]1CC[C@@H](Nc2nccc(N(C)C)n2)CC1 [compound 2262]	3 (Class 3 The value of percent of control at 10^−7 M was more than 60% or the value of IC50 was more than 200 nM.)
CN(C)c1cc(N[C@H]2CC[C@@H](NC(=O)Nc3c(Cl)c(Cl)cc(Cl)c3Cl)CC2)nc2ccccc12 [compound 2138]	3 (Class 3 The value of percent of control at 10^−7 M was more than 60% or the value of IC50 was more than 200 nM.)
CN(C)c1nc(N[C@H]2CC[C@@H](NC(=S)Nc3ccc(Br)cc3C(F)(F)F)CC2)nc2c1CCCC2 [compound 1765]	1 (Class 1: The value of percent of control at 10^−7 M was less than 40% or the value of IC50 was less than 50 nM.)
CC(NC(=O)N[C@H]1CC[C@@H](Nc2nccc(N(C)C)n2)CC1)c1cccc2ccccc12 (relative stereo) [compound 2224, N-(cis-4-{[4-(dimethylamino)pyrimidin-2-yl]amino}cyclohexyl)-N′-[1-(1-naphthyl)ethyl]urea]	1 (Class 1: The value of percent of control at 10^−7 M was less than 40% or the value of IC50 was less than 50 nM.)
COc1ccc2[nH]c(C)c(CC(=O)N[C@H]3CC[C@@H](Nc4nccc(N(C)C)n4)CC3)c2c1 [compound 821]	3 (Class 3 The value of percent of control at 10^−7 M was more than 60% or the value of IC50 was more than 200 nM.)
CN(C)c1nc(N[C@H]2CC[C@@H](CNC(=O)Cc3ccc(F)cc3)CC2)nc2c1CCCC2 [compound 630]	3 (Class 3 The value of percent of control at 10^−7 M was more than 60% or the value of IC50 was more than 200 nM.)
C=C(C)c1cccc(C(C)(C)NC(=O)N[C@H]2CC[C@@H](Nc3nccc(N(C)C)n3)CC2)c1 [compound 2218]	3 (Class 3 The value of percent of control at 10^−7 M was more than 60% or the value of IC50 was more than 200 nM.)
CN(C)c1nc(N[C@H]2CC[C@@H](CNC(=O)CC3CCCC3)CC2)nc2c1CCCC2 [compound 637]	3 (Class 3 The value of percent of control at 10^−7 M was more than 60% or the value of IC50 was more than 200 nM.)
COc1c(Br)cc(Br)cc1CNC[C@H]1CC[C@@H](Nc2nccc(N(C)C)n2)CC1 [compound 1292]	1 (Class 1: The value of percent of control at 10^−7 M was less than 40% or the value of IC50 was less than 50 nM.)
Cc1cc(C(=O)NC[C@H]2CC[C@@H](Nc3nccc(N(C)C)n3)CC2)ccc1[N+](=O)[O-] [compound 940, N-[(cis-4-{[4-(dimethylamino)pyrimidin-2-yl]amino}cyclohexyl)methyl]-3-methyl-4-nitrobenzamide]	1 (Class 1: The value of percent of control at 10^−7 M was less than 40% or the value of IC50 was less than 50 nM.)
Cc1ccc(NC(=S)N[C@H]2CC[C@@H](Nc3nc4c(c(N(C)C)n3)CCCC4)CC2)c(C)c1 [compound 1756]	2 (Class 2: The value of percent of control at 10^−7 M was from 40% to 60% or the value of IC′50 was from 50 nM to 200 nM.)

same assay, conditions: class by percent of control at 10^−7 M or IC50

Structure (SMILES)	class
Cc1ccc(C2(C(=O)N[C@H]3CC[C@@H](Nc4ncc(C)c(N(C)C)n4)CC3)CC2)cc1 [compound 2873]	1 (Class 1: The value of percent of control at 10^−7 M was less than 40% or the value of IC50 was less than 50 nM.)
Cc1cc(N(C)C)nc(N[C@H]2CC[C@@H](C(=O)NCc3cccc(Cl)c3)CC2)n1 [compound 2812, cis-N-(3-chlorobenzyl)-4-{[4-(dimethylamino)-6-methylpyrimidin-2-yl]amino}cyclohexanecarboxamide]	1 (Class 1: The value of percent of control at 10^−7 M was less than 40% or the value of IC50 was less than 50 nM.)
Cc1cc(C(=O)NC[C@H]2CC[C@@H](Nc3ncc(C)c(N(C)C)n3)CC2)ccc1F [compound 2696]	2 (Class 2: The value of percent of control at 10^−7 M was from 40% to 60% or the value of IC′50 was from 50 nM to 200 nM.)
